Assay results reported in PubChem BioAssay (NCI).
“And” between values parts separate entries of the source, which are not always exact repeats. Identical values can stand only once.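 How tested: cells in 96-well plates exposed to compound for 48 hours at five concentrations. At the GI50, growth is halved. At the TGI there is no net growth.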

Experiments:
Assay in all cases: DTP human tumour cell line panel, 48 h
HS 578T breast = system: HS 578T breast
T-47D breast = system: T-47D breast
HOP-62 NSCLC = system: HOP-62 NSCLC
KM12 colon = system: KM12 colon
COLO 205 colon = system: COLO 205 colon
CCRF-CEM leukemia = system: CCRF-CEM leukemia
SF-268 CNS = system: SF-268 CNS
TK-10 renal = system: TK-10 renal
LOX IMVI melanoma = system: LOX IMVI melanoma
MCF7 breast = system: MCF7 breast

Compound	GI50 (HS 578T breast) [nM]	TGI (HS 578T breast) [µM]	GI50 (T-47D breast) [µM]	TGI (T-47D breast) [µM]	GI50 (HOP-62 NSCLC)	TGI (HOP-62 NSCLC) [µM]	GI50 (KM12 colon) [nM]	TGI (KM12 colon) [µM]	GI50 (COLO 205 colon) [µM]	TGI (COLO 205 colon) [µM]	GI50 (CCRF-CEM leukemia) [nM]	TGI (CCRF-CEM leukemia)	GI50 (SF-268 CNS) [µM]	TGI (SF-268 CNS) [µM]	GI50 (TK-10 renal) [nM]	TGI (TK-10 renal) [µM]	GI50 (LOX IMVI melanoma) [nM]	TGI (LOX IMVI melanoma)	GI50 (MCF7 breast) [µM]	TGI (MCF7 breast) [µM]
COc1cccc(-n2cc(-c3nc(Nc4cc(C)[nH]n4)c4ccccc4n3)nn2)c1	2600	16.5	2	9.61	1.64 µM	8.4	1690	7.39	6.8	15.9	2820	16.8 µM	5.39	13.8	438	8.42	5150	12.3 µM	4.76	14
O=C(c1ccco1)c1c(C(F)(F)F)nc2ccc(C(F)(F)F)cc2[n+]1[O-]	21200	54.5	36.3	> 87.5	19.8 µM	46.3	68000	> 100	> 100	> 100		> 49.4 µM	33.3	99.5	23900	50	47800	> 100 µM	33.6	> 100
NC(=S)N/N=C/c1ccc(N)cn1		> 10		> 10		> 10		> 10		8.03		> 10 µM		> 10		> 10		> 10 µM		> 10
COc1cc2oc(-c3ccc(O)cc3O)c(CC=C(C)C)c(=O)c2c(O)c1/C=C/C(C)C		7.92		23.4		5.93		7.51		10.3		5.07 µM		5.52		14.1		3.32 µM		7.56
NC1CCC(Nc2nc(NCc3cc(Cl)ccc3O)c3ncn(C4CCCC4)c3n2)CC1 (centres undefined)	222	0.893	0.259	0.858	0.245 µM	0.813	132	1.02	0.0965	0.238	127	0.532 µM	0.188	0.52	332	0.979	537	5 µM	0.104	0.318
C/C(=N\NC(=S)N1CCN(C2CCCCCC2)CC1)c1ccccn1		4.63		2.22	0.0198 µM and < 0.0156 µM	1.41	22.9	3.13		1.48	< 1	0.291 µM and 2.4 µM		5.5	420	3.34	17.3	5.29 µM and 1.83 µM		2.05
CN(C)CCC=C1c2ccccc2C(C)(C)c2ccccc21	9030	29.8	11.5	27.4	17.4 µM	33.5	14800	28.4	3.82	14.3	9840	28.4 µM	14.7	27.8	18400	37	9460	22 µM	10.2	22.5
CC1=C(C(=O)Nc2ccc3[nH]ncc3c2)C(c2ccc(Cl)c(Cl)c2)CC(=O)N1 (centres undefined)	4290	> 25	> 25	> 25	17 µM	> 25	> 25000	> 25	16.6	> 25	24200	> 25 µM	9.62	> 25	> 12500	> 25	> 22300	> 25 µM	> 24.1	> 25
C=C1CCC2C3(C)COC(c4c(OC)cccc4OC)OC3CCC2(C)C1C/C=C1/C(=O)OCC1O (centres undefined)	2710	10.9	5.43	26.9	14.8 µM	28.7	2210	4.99	2.23	4.95	1860	5.75 µM	3.7	12.4	4030	12.5	1630	3.25 µM	2.53	12.8
CCCCCCCCCCCCCCCC(=O)N[C@H](/C=C/[C@H](O)CCCCCCCCCCCCC)CO	> 100000	> 100	> 100	> 100	> 100 µM	> 100	> 100000	> 100	> 100	> 100	> 100000	> 100 µM	> 100	> 100	> 100000	> 100	> 100000	> 100 µM	> 100	> 100
CCCC[n+]1c(/C=C\c2c(OC)cc(OC)cc2OC)ccc2ccccc21	1280	8.64	0.205	2.06	2.58 µM	10.5	345	1.59	0.332	1.19	1480	18.4 µM	2.03	10.3	1550	6.26	827	2.58 µM	0.494	4.73
Cc1cccc2nc3cccc(C(=O)NCCNCCNCCNC(=O)c4cccc5nc6cccc(C)c6nc45)c3nc12	47.4	2.24	< 0.0123	8.67	< 0.01 µM	1.19	< 10	3.42	< 0.01	0.7	85.9	2.86 µM	< 0.01	1.7	< 14.7	0.846	< 10	0.53 µM	< 0.01	> 33
O=C(N=Nc1c(O)[nH]c2ccccc12)c1oc2ccccc2c1CN1CCN(c2ccccc2)CC1	1690	10.4	1.38	5.41	2.7 µM	10.9	7470	> 50	2.77	> 50	1680	> 50 µM	1.97	13.8	1050	3.58	2040	7.84 µM	1.43	5.89
O=c1c2c(c3ccccc3n1-c1ccccc1)NC(=S)NC2c1ccc(Cl)cc1 (centres undefined)	1850	> 100	20	> 100	4.83 µM	56.3	1880	11.7	8.09	29.1	3790	> 100 µM	3.28	> 100	9620	> 100	2590	33.4 µM	4.75	> 100
C[N+](C)(CCCCCC[N+](C)(C)CCCN1C(=O)c2cc3ccccc3cc2C1=O)CCCN1C(=O)c2cc3ccccc3cc2C1=O	> 37500	> 37.5	> 37.5	> 37.5	> 37.5 µM	> 37.5	> 37500	> 37.5	> 37.5	> 37.5	> 37500	> 37.5 µM	> 37.5	> 37.5	> 37500	> 37.5	> 37500	> 37.5 µM	> 37.5	> 37.5
